Active and inactive are the calls of the source. The rule behind the calls is not given here.
What was measured:
Syrian golden hamster [1] = assay: Antiandrogenic activity in female Syrian golden hamsters assessed as inhibition of testosterone propionate-induced flank organ enlargement at 400 ug per animal, topically relative to untreated control; type: functional, Mesocricetus auratus
Plasma = assay: Drug metabolism in rat plasma assessed as cortexolone-21-propionate formation after up to 8 hrs by HPLC analysis in presence of 50 ug/ml dichlofvos; type: ADME, cell-free
Syrian golden hamster [2] = assay: Antiandrogenic activity in female Syrian golden hamsters assessed as inhibition of testosterone propionate-induced flank organ enlargement at 100 ug per animal, topically relative to untreated control; type: functional, Mesocricetus auratus
Syrian golden hamster [3] = assay: Antiandrogenic activity in female Syrian golden hamsters assessed as inhibition of testosterone propionate-induced flank organ enlargement at 200 ug per animal, topically relative to untreated control; type: functional, Mesocricetus auratus
[4] = molecular target: Steroid 5-alpha-reductase (Homo sapiens) (UniProt P18405+P31213+Q9H8P0); assay: Inhibition of 5alpha-reductase in human epidermis assessed as inhibition of [14C]testosterone to DHT after 24 hrs; type: protein assay
Sequence of Steroid 5-alpha-reductase (Homo sapiens) (P18405 whole entry, looked up): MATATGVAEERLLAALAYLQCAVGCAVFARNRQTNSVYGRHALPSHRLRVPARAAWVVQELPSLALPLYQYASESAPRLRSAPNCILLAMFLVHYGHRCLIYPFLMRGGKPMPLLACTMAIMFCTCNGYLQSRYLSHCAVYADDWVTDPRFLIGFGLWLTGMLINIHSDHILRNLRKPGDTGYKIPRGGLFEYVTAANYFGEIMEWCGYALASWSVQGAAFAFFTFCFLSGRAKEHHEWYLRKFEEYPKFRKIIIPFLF
Sequence of Steroid 5-alpha-reductase (Homo sapiens) (P31213 whole entry, looked up): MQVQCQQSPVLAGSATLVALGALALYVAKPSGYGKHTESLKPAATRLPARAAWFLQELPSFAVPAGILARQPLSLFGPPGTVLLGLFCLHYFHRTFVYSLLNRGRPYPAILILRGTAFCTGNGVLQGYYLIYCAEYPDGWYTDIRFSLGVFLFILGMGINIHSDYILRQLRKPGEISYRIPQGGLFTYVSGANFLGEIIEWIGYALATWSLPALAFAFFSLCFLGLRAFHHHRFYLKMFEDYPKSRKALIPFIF
Sequence of Steroid 5-alpha-reductase (Homo sapiens) (Q9H8P0 whole entry, looked up): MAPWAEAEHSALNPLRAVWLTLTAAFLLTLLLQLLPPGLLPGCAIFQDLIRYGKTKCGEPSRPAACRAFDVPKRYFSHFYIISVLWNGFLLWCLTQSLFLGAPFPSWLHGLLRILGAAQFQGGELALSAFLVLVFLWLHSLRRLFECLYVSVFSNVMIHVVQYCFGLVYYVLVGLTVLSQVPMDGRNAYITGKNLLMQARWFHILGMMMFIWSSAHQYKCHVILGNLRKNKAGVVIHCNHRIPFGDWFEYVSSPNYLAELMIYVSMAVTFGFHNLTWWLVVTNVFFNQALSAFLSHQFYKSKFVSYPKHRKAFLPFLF

Androgen receptor = molecular target: T1, Androgen receptor (Homo sapiens, UniProt P10275); assay: Displacement of [3H]methyltrienolone from androgen receptor in human prostate cancer cells; type: cell-based, Cancer cell lines
T1 sequence (P10275 whole entry): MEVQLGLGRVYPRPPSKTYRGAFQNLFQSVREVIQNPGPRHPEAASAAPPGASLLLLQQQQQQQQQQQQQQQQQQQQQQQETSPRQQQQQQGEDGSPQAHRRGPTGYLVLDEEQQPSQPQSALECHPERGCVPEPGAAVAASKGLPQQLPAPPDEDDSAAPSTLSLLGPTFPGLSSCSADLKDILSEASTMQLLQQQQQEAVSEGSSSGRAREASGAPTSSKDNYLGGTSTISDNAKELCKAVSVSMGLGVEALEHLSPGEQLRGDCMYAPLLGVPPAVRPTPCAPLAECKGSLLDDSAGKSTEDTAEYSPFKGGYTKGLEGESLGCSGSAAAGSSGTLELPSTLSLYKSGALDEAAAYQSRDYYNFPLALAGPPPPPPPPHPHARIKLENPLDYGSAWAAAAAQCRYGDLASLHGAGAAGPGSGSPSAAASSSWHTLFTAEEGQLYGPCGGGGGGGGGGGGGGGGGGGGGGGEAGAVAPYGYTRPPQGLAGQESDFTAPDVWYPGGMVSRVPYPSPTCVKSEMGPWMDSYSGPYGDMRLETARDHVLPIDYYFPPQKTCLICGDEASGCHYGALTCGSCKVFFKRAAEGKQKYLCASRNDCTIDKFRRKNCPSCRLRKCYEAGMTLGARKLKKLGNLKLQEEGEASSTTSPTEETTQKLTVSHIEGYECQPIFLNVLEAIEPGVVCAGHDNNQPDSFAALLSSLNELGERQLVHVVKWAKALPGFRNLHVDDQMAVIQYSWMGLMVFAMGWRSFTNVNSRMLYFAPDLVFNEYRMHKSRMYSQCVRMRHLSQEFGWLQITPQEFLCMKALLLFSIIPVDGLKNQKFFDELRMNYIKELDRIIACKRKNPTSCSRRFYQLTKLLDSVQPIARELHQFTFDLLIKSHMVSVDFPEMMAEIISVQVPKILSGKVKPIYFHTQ

Rattus norvegicus [5] = assay: Antiandrogenic activity in sc dosed male castrated Wistar rat assessed as inhibition of testosterone propionate-induced ventral prostate gland organ effect; type: functional, organism-based
Rattus norvegicus [6] = assay: Antiandrogenic activity in sc dosed male castrated Wistar rat assessed as inhibition of testosterone propionate-induced seminal vesicles gland organ effect; type: functional, organism-based
Rattus norvegicus [7] = assay: Antiandrogenic activity in sc dosed male castrated Wistar rat assessed as inhibition of testosterone propionate-induced preputial gland organ effect; type: functional, organism-based
Rattus norvegicus [8] = assay: Glucocorticoid activity in male castrated Wistar rat assessed as reduction in adrenal weight at 100 mg/kg, sc; type: functional, organism-based
Rattus norvegicus [9] = assay: Glucocorticoid activity in male castrated Wistar rat assessed as reduction in thymus weight at 100 mg/kg, sc; type: functional, organism-based
[10] = Drug metabolism in rat plasma assessed as compound remaining after 0 mins by HPLC analysis; type: ADME, cell-free; conditions: read-out: Drug metabolism
[11] = Drug metabolism in rat plasma assessed as compound remaining after 5 mins by HPLC analysis; type: ADME, cell-free; conditions: read-out: Drug metabolism
[12] = Drug metabolism in rat plasma assessed as compound remaining after 15 mins by HPLC analysis; type: ADME, cell-free; conditions: read-out: Drug metabolism
[13] = Drug metabolism in rat plasma assessed as compound remaining after 30 mins by HPLC analysis; type: ADME, cell-free; conditions: read-out: Drug metabolism
[14] = Drug metabolism in rat plasma assessed as compound remaining after 1 hr by HPLC analysis; type: ADME, cell-free; conditions: read-out: Drug metabolism
[15] = Drug metabolism in rat plasma assessed as compound remaining after 2 hrs by HPLC analysis; type: ADME, cell-free; conditions: read-out: Drug metabolism
[16] = Drug metabolism in rat plasma assessed as compound remaining after 4 hrs by HPLC analysis; type: ADME, cell-free; conditions: read-out: Drug metabolism
[17] = Drug metabolism in rat plasma assessed as compound remaining after 8 hrs by HPLC analysis; type: ADME, cell-free; conditions: read-out: Drug metabolism
[18] = Drug metabolism in human plasma assessed as compound remaining after 30 mins by HPLC analysis; type: ADME, cell-free; conditions: read-out: Drug metabolism
[19] = Drug metabolism in human plasma assessed as compound remaining after 1 hr by HPLC analysis; type: ADME, cell-free; conditions: read-out: Drug metabolism
[20] = Drug metabolism in human plasma assessed as compound remaining after 2 hrs by HPLC analysis; type: ADME, cell-free; conditions: read-out: Drug metabolism
[21] = Drug metabolism in human plasma assessed as compound remaining after 4 hrs by HPLC analysis; type: ADME, cell-free; conditions: read-out: Drug metabolism
[22] = Drug metabolism in human plasma assessed as compound remaining after 6 hrs by HPLC analysis; type: ADME, cell-free; conditions: read-out: Drug metabolism
[23] = Drug metabolism in human plasma assessed as compound remaining after 0 mins by HPLC analysis; type: ADME, cell-free; conditions: read-out: Drug metabolism
[24] = Drug metabolism in rat skin homogenate assessed as compound remaining after 5 mins by HPLC analysis; type: ADME, tissue-based, Zone of skin; conditions: read-out: Drug metabolism
[25] = Drug metabolism in rat skin homogenate assessed as compound remaining after 15 mins by HPLC analysis; type: ADME, tissue-based, Zone of skin; conditions: read-out: Drug metabolism
[26] = Drug metabolism in rat skin homogenate assessed as compound remaining after 30 mins by HPLC analysis; type: ADME, tissue-based, Zone of skin; conditions: read-out: Drug metabolism
[27] = Drug metabolism in rat skin homogenate assessed as compound remaining after 1 hr by HPLC analysis; type: ADME, tissue-based, Zone of skin; conditions: read-out: Drug metabolism
[28] = Drug metabolism in rat skin homogenate assessed as compound remaining after 2 hrs by HPLC analysis; type: ADME, tissue-based, Zone of skin; conditions: read-out: Drug metabolism
[29] = Drug metabolism in rat skin homogenate assessed as compound remaining after 4 hrs by HPLC analysis; type: ADME, tissue-based, Zone of skin; conditions: read-out: Drug metabolism
[30] = Drug metabolism in rat skin homogenate assessed as compound remaining after 8 hrs by HPLC analysis; type: ADME, tissue-based, Zone of skin; conditions: read-out: Drug metabolism
[31] = Drug metabolism in rat skin homogenate assessed as compound remaining after 16 hrs by HPLC analysis; type: ADME, tissue-based, Zone of skin; conditions: read-out: Drug metabolism
[32] = Drug metabolism in rat skin homogenate assessed as compound remaining after 24 hrs by HPLC analysis; type: ADME, tissue-based, Zone of skin; conditions: read-out: Drug metabolism
[33] = Drug metabolism in rat skin homogenate assessed as compound remaining after 0 mins by HPLC analysis; type: ADME, tissue-based, Zone of skin; conditions: read-out: Drug metabolism

Question: What does the source list for `CCC(=O)OCC(=O)[C@@]1(O)CC[C@H]2[C@@H]3CCC4=CC(=O)CC[C@]4(C)[C@H]3CC[C@@]21C`?
Answer: inhibition (INH) (Syrian golden hamster [1]): 29%; Drug metabolism (Plasma): metabolite_detected

Question: For `CCC(=O)OCC(=O)[C@@]1(OC(=O)CC)CC[C@H]2[C@@H]3CCC4=CC(=O)CC[C@]4(C)[C@H]3CC[C@@]21C`, which “inhibition (INH)” value (Syrian golden hamster [1]) is on record?
Answer: Its value is 57%.

Question: Which “inhibition (INH)” value (Syrian golden hamster [1]) does the source give for `CCCC(=O)O[C@]1(C(=O)CO)CC[C@H]2[C@@H]3CCC4=CC(=O)CC[C@]4(C)C3=CC[C@@]21C` here?
Answer: Its value is 85%.

Question: What does the source list for `CCC(=O)O[C@]1(C(=O)CO)CC[C@H]2[C@@H]3CCC4=CC(=O)CC[C@]4(C)[C@H]3CC[C@@]21C` [CLASCOTERONE]?
Answer: inhibition (INH) (Syrian golden hamster [1]): 84%; inhibition (INH) (Syrian golden hamster [2]): 40%; inhibition (INH) (Syrian golden hamster [3]): 78%; inhibition [4]: inactive; IC50 (Androgen receptor): 50 nM; Ki (Androgen receptor): 40 nM; Activity (Rattus norvegicus [5]): inactive; Activity (Rattus norvegicus [6]): inactive; Activity (Rattus norvegicus [7]): inactive; inhibition (Rattus norvegicus [8]): Active; inhibition (Rattus norvegicus [9]): Active; remaining at 0 h [10]: 100%; remaining at 5 min [11]: 90%; remaining at 0.25 h [12]: 90%; remaining at 0.5 h [13]: 80%; remaining at 1 h [14]: 60%; remaining at 2 h [15]: 50%; remaining at 4 h [16]: 20%; remaining at 8 h [17]: 0%; remaining at 0.5 h [18]: 93.2%; remaining at 1 h [19]: 85.2%; remaining at 2 h [20]: 67.2%; remaining at 4 h [21]: 30.3%; remaining at 6 h [22]: 11.3%; remaining at 0 h [23]: 99.6%; remaining at 5 min [24]: 99%; remaining at 0.25 h [25]: 99%; remaining at 0.5 h [26]: 98.5%; remaining at 1 h [27]: 89.5%; remaining at 2 h [28]: 69.5%; remaining at 4 h [29]: 59.5%; remaining at 8 h [30]: 49.5%; remaining at 16 h [31]: 44.8%; remaining at 24 h [32]: 44.8%; remaining at 0 h [33]: 99%

Question: Which “inhibition (INH)” value (Syrian golden hamster [1]) does the source give for `C[C@]12CCC(=O)C=C1CC[C@@H]1[C@@H]2CC[C@@]2(C)[C@H]1CC[C@]2(O)C(=O)CO` [CORTODOXONE] here?
Answer: Its value is 0%.

Question: With `CC(=O)O[C@]1(C(C)=O)CC[C@H]2[C@@H]3C=C(Cl)C4=CC(=O)[C@@H]5C[C@@H]5[C@]4(C)[C@H]3CC[C@@]21C` [CYPROTERONE ACETATE] as the compound, how does the “inhibition (INH)” value (Syrian golden hamster [1]) read?
Answer: Its value is 93%.

Question: For `CC(C)(C)NC(=O)[C@H]1CC[C@H]2[C@@H]3CC[C@H]4NC(=O)C=C[C@]4(C)[C@H]3CC[C@]12C` [FINASTERIDE], which “inhibition (INH)” value (Syrian golden hamster [1]) is on record?
Answer: The value was 71%.
